Data on two compounds can be found in US20160324153A1, “HERBICIDAL MIXTURE COMPRISING IMAZETHAPYR AND CYCLOXYDIM” (BASF AGROCHEMICAL PRODUCTS, priority 2014, published 2016).

Holding throughout (type): in vivo
For experiment [1], the system named is ECHCO (Echinochloa colonum). Briefly: Post emergence treatment, herbicidal activity against ECHCO. An excerpt:
(§1) Synergism can be described as an interaction where the combined effect of two or more compounds is greater than the sum of the individual effects of each of the compounds. The presence of a synergistic effect in terms of percent control, between two mixing partners (X and Y) can be calculated using the Colby equation (Colby, S. R., 1967, Calculating Synergistic and Antagonistic Responses in Herbicide Combinations, Weeds, 15, 21-22): When the observed combined control effect is greater than the expected (calculated) combined control effect (E), then the combined effect is synergistic. […] However, the weed control afforded by the compounds, mixtures or compositions is not limited to these species. The analysis of synergism or antagonism between the mixtures or compositions was determined using Colby's equation. Analogously, the Colby's equation can be used to determine synergism of 3-way and higher mixtures. Post Emergence Treatment by the Mixture of Imazethapyr+Cycloxydim Post Emergence Treatment by the Mixture of (Imazethapyr+Imazamox)+Cycloxydim

The subject of another experiment is LEFFA (Leptochloa fusca). The experiment can be described thus: Post emergence treatment, herbicidal activity against LEFFA. To be noted: Example 1, post emergence.
Description: as §1, with “Imazethapyr+Cycloxydim” for “Imazethapyr+Cycloxydim Post Emergence Treatment by the Mixture of (Imazethapyr+Imazamox)+Cycloxydim”

The next experiment relates to ORYSA (Orysa sativa). Briefly: Post emergence treatment, herbicidal activity against ORYSA.
Description: as §1

Experiment [2] deals with PHACA (Phalaris canariensis). The experiment can be described thus: Post emergence treatment, herbicidal activity against PHACA. To be noted: Example 2, post emergence.
Description: as §1, with “of” for “of Imazethapyr+Cycloxydim Post Emergence Treatment by the Mixture of”

The subject of experiment [3] is BRAPL (Brachiaria plantaginea). The experiment can be described thus: Post emergence treatment, herbicidal activity against BRAPL. As to conditions: Example 2, post emergence; Cycloxydim 3 g ai/ha.
Description: as §1, with “of” for “of Imazethapyr+Cycloxydim Post Emergence Treatment by the Mixture of”

The mark [4] stands for this setting: Example 1, post emergence, Cycloxydim 6 g ai/ha.
Setting [5] is: Example 1, post emergence, Imazethapyr 7.5 g ai/ha.

For the compound `CCCC(=NOCC)C1=C(O)CC(C2CCCSC2)CC1=O` (racemic) [Cycloxydim, (5RS)-2-[(EZ)-1-(Ethoxyimino)butyl]-3-hydroxy-5-[(3RS)-thian-3-yl]cyclohex-2-en-1-one], the “Herbicidal activity against ECHCO, Found” value in experiment [1] (setting [4]) came out at 50; in experiment [1] (Example 2, post emergence, Cycloxydim 3 g ai/ha), 0. In addition, in the experiment on LEFFA (Leptochloa fusca) (Cycloxydim 6 g ai/ha), the “Herbicidal activity against LEFFA, Found” value is listed as 40. Moreover, the “Herbicidal activity against ORYSA, Found” value in the experiment with ORYSA (Orysa sativa) (setting [4]) came out at 20; with ORYSA (Orysa sativa) (Example 2, post emergence, Cycloxydim 6 g ai/ha) it was 20. The “Herbicidal activity against PHACA, Found” value turned out to be 0 in experiment [2] (the 3rd table, Cycloxydim 3 g ai/ha); 0 in experiment [2] (the 5th table, Cycloxydim 3 g ai/ha); 60 in experiment [2] (Cycloxydim 6 g ai/ha). In addition, the “Herbicidal activity against BRAPL, Found” value in experiment [3] is reported as 0.
With `CCc1cnc(C2=NC(C)(C(C)C)C(=O)N2)c(C(=O)O)c1` (racemic) [Imazethapyr, 5-ethyl-2-[(RS)-4-isopropyl-4-methyl-5-oxo-2-imidazolin-2-yl]nicotinic acid], in experiment [1] (setting [5]), the “Herbicidal activity against ECHCO, Found” value amounted to 85. Moreover, in the experiment with LEFFA (Leptochloa fusca) (Imazethapyr 7.5 g ai/ha), the “Herbicidal activity against LEFFA, Found” value was 55. In the experiment with ORYSA (Orysa sativa) (setting [5]), the “Herbicidal activity against ORYSA, Found” value came to 50.
